Paper PMC9598407, “Identification of Staphylococcus aureus Penicillin Binding Protein 4 (PBP4) Inhibitors” (Antibiotics, 2022)

Tests used:
[1] = target: recombinant Bacillus subtilis PBP4 (Bacillus subtilis, UniProt P40750); test: BOCILLIN FL fluorescence polarization displacement assay, PBP4; assay type: binding
Experimental: To more directly evaluate whether 9314848 is likely to affect PBP4 function, the compound’s ability to bind recombinant PBP4 was measured using BOCILLIN FL fluorescence polarization displacement assays. The premise for the assay is that the fluorescence polarization of the fluorescently labeled β-lactam, penicillin V (BOCILLIN FL), will increase upon binding to its cognate target (i.e., PBP4). Further, compounds that bind PBP4 and inhibit its function would impede BOCILLIN FL binding thereby allowing us to assess the protein binding affinity of 9314848 using a simple fluorescence reduction assay.
To determine whether the assay is amenable to measuring the binding properties of a compound that is known to bind PBP4 vs. a compound that is not expected to bind the protein we performed fluorescence polarization assays in which PBP4 was preincubated with either the β-lactam ampicillin, or the aminoglycoside kanamycin.
(§1) A dose response study was conducted (Figure 4B) in which PBP4 was preincubated with 0, 3.125, 6.25, 12.5, 25, or 50 µM of ampicillin, kanamycin, or 9314848.
First, fluorescence polarization assays were performed as previously described, but with minor modifications. Briefly, the indicated amount of the putative PBP4 inhibitor or control antibiotic was incubated with 1 µM recombinant B. subtilis PBP4 or S. aureus PBP2a in potassium phosphate buffer (40 mM K2HPO4 and 10 mM KH2PO4) for 1 h in black 96-well microtiter plates (Corning Life Sciences, Corning, NY, USA). Following incubation, 1 µM (final concentration) BOCILLIN FL penicillin was added, and the mixture was incubated for 30 min. BOCILLIN FL fluorescence polarization was measured at (495 nm excitation and 545 nm emission) in a SpectraMax M5 multimode plate reader (Molecular Devices, San Jose, CA, USA). […] The resulting data were plotted as percentage BOCILLIN FL binding inhibition = (T/U) × 100; T = FL polarization of ((PBP4+ BOCILLIN FL) − (PBP4+ BOCILLIN FL + inhibitor compound)), U = FL polarization of ((PBP4 + BOCILLIN FL) − (BOCILLIN FL)). Second, gel electrophoresis and fluorescence detection was used to measure BOCILLIN FL labeling of PBP4 treated with the known PBP4 inhibitor cefoxitin (positive control), kanamycin (negative control) or 9314848 (test compound), as previously described but with minor modifications. Briefly, 1 µM of recombinant PBP4 was mixed with 0, 50, 500, 2000, or 5000 µM 9314848 or control antibiotic in 50 mM phosphate buffer (pH 7.4) and incubated at 37 °C for 30 min. Next 40 μM of BOCILLIN FL was added to the reaction mixture and incubated for an additional 30 min at 37 °C. Reactions were stopped by adding 5× SDS-PAGE gel loading dye, heated at 100 °C for 3 min and separated by electrophoresis in 12% SDS-PAGE (2 h, 120 Volts). BOCILLIN FL labeled PBP4 was imaged at λ = 365 nm using a BioRad Gel Doc EZ Imaging system and the gel was then subsequently stained with Bio-safe Coomassie Brilliant Blue stain (BioRad, Hercules, CA, USA) to measure the amount of protein present in each reaction condition and analyzed using NIH-ImageJ software. The percent BOCILLIN FL binding was calculated by first normalizing the protein present in each reaction condition to that of untreated control and subsequently applying each reaction’s protein normalization factor to each reaction’s fluorescent signal. The percentage BOCILLIN FL binding inhibition was then calculated as the normalized band intensity of antibiotic/compound treated sample as compared to the control sample (PBP4 + BOCILLIN FL in the absence of compound).

Pseudomonas aeruginosa = test: Ceftobiprole susceptibility with compound, Pseudomonas aeruginosa; assay type: cell-based; details: not shown
Experimental: As a means to further evaluate whether the compound affects PBP4 activity a series of assays were performed.

S. aureus PBP2a = S. aureus PBP2a (Staphylococcus aureus, UniProt P07944); test: BOCILLIN FL fluorescence polarization assay, PBP2A; assay type: binding; details: 50 µM compound; read-out: Inhibition of BOCILLIN FL labeling of PBP2A
Experimental: as §1
First, fluorescence polarization assays were performed as previously described, but with minor modifications. Briefly, the indicated amount of the putative PBP4 inhibitor or control antibiotic was incubated with 1 µM recombinant B. subtilis PBP4 or S. aureus PBP2a in potassium phosphate buffer (40 mM K2HPO4 and 10 mM KH2PO4) for 1 h in black 96-well microtiter plates (Corning Life Sciences, Corning, NY, USA). Following incubation, 1 µM (final concentration) BOCILLIN FL penicillin was added, and the mixture was incubated for 30 min. BOCILLIN FL fluorescence polarization was measured at (495 nm excitation and 545 nm emission) in a SpectraMax M5 multimode plate reader (Molecular Devices, San Jose, CA, USA). […] Second, gel electrophoresis and fluorescence detection was used to measure BOCILLIN FL labeling of PBP4 treated with the known PBP4 inhibitor cefoxitin (positive control), kanamycin (negative control) or 9314848 (test compound), as previously described but with minor modifications. […] The percentage BOCILLIN FL binding inhibition was then calculated as the normalized band intensity of antibiotic/compound treated sample as compared to the control sample (PBP4 + BOCILLIN FL in the absence of compound).

[2] = system: S. aureus strain CRB∆pbp4; test: Fractional inhibitory concentration checkerboard, ceftobiprole + putative PBP4 inhibitor, strain CRB∆pbp4; assay type: cell-based, Staphylococcus aureus
S. aureus strain CRB = test: Fractional inhibitory concentration checkerboard, ceftobiprole + putative PBP4 inhibitor, strain CRB; assay type: cell-based, Staphylococcus aureus
Experimental: Fractional inhibitory testing was performed in checkerboard format to determine whether putative PBP4 inhibitors potentiated the antimicrobial effects of β-lactams toward S. aureus strains USA300 and CRB, as previously described. To do so, in triplicate 10^5 CFU of each strain (10 µL) was added to individual wells of a microtiter plate containing 90 µL MH media. […] Plates were incubated at 37 °C for 16–20 h and the lowest concentration of each test agent that inhibited bacterial growth alone or in combination was determined by the naked eye. The fractional inhibitory concentration (FIC) index was calculated using the formula: FIC of A (MIC of drug A in combination/MIC of drug A alone) + FIC B ([…]/MIC of drug B alone). A synergistic interaction was defined as a FICI value of less than 0.5, an additive interaction was defined as a FICI value between 0.5 and 1.0, an indifferent interaction was defined as a FICI value between 1.0 and 4.0, and an antagonistic interaction was defined as a FICI value of more than 4.0 [46].

Sequence of recombinant Bacillus subtilis PBP4 (P40750 22-624): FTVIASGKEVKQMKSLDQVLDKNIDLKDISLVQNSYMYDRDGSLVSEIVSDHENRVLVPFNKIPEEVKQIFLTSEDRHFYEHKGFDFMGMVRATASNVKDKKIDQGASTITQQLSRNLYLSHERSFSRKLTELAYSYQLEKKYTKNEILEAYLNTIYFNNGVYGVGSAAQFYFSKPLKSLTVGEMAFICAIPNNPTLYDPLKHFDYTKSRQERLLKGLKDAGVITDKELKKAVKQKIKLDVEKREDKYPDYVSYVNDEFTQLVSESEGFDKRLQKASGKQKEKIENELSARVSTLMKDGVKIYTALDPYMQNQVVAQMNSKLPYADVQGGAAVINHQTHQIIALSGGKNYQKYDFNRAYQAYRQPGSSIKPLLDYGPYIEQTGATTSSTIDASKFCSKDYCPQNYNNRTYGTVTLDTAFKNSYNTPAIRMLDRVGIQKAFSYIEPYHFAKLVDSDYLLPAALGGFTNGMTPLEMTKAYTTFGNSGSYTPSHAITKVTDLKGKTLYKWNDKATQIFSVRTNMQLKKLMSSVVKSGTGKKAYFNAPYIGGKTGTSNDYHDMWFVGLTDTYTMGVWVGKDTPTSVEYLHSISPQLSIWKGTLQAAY
Sequence of S. aureus PBP2a (P07944 whole entry): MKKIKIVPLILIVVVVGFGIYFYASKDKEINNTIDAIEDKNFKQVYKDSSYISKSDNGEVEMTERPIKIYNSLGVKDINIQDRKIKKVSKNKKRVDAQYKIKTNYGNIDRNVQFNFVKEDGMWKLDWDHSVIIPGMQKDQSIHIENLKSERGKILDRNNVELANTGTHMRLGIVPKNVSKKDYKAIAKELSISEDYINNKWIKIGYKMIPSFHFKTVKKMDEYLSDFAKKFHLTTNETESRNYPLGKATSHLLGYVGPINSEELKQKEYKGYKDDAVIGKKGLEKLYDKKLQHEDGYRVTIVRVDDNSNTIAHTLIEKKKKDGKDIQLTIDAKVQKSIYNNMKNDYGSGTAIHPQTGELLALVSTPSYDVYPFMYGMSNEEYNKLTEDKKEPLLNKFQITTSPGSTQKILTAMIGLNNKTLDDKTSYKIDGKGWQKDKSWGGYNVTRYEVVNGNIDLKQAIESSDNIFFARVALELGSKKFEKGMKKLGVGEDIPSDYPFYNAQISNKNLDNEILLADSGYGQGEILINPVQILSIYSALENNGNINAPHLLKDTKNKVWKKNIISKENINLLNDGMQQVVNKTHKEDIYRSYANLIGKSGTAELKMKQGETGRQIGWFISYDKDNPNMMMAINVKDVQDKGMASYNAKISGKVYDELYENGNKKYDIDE

CC1CCN(C(=O)c2cccc(NC(=O)Nc3ccc(Cl)cc3)c2)CC1 [Compound 9314848]
Binding to PBP4 at low concentration ([1]; 3.125 µM and 6.25 µM): Minimal binding
Reduction of BOCILLIN FL binding to PBP4 ([1]; 50 µM compound, fluorescence polarization): ~ 66%
Effect of preincubation on BOCILLIN FL binding to PBP4 (fluorescence polarization) ([1]; 50 µM, 1 µM PBP4): limited fluorescence polarization
IC50 ([1]; fluorescence polarization dose response 0-50 µM, read-out: IC50, PBP4 BOCILLIN FL binding inhibition): 13.4 µM
Effect on ceftobiprole susceptibility (Pseudomonas aeruginosa): no effect
inhibition at 50 µM (S. aureus PBP2a): 25.8 ± 11.4%
MIC ([2]; Staphylococcus aureus, read-out: CRB∆pbp4 Alone Cmpd (putative PBP4 inhibitor MIC alone)): 400 µM
CRB∆pbp4 Combination BPR (ceftobiprole MIC in combination) ([2]; strain CRB∆pbp4, ceftobiprole combined with the indicated putative PBP4 inhibitor): 0.125 µg/mL
CRB∆pbp4 Combination Cmpd (compound concentration in combination) ([2]; strain CRB∆pbp4, compound combined with ceftobiprole): 25 µM
CRB∆pbp4 Fold-decrease in ceftobiprole resistance in combination ([2]; strain CRB∆pbp4, in combination with the indicated putative PBP4 inhibitor): 2 fold
MIC (S. aureus strain CRB; Staphylococcus aureus, read-out: CRB Alone Cmpd (putative PBP4 inhibitor MIC alone)): 400 µM
CRB Combination BPR (ceftobiprole MIC in combination) (S. aureus strain CRB; strain CRB, ceftobiprole combined with the indicated putative PBP4 inhibitor): 8 µg/mL
CRB Combination Cmpd (compound concentration in combination) (S. aureus strain CRB; strain CRB, compound combined with ceftobiprole): 25 µM
CRB Fold-decrease in ceftobiprole resistance in combination (S. aureus strain CRB; strain CRB, in combination with the indicated putative PBP4 inhibitor): 16 fold
